From patent US8828974B2, “Substituted propane phosphinic acid derivatives” (Aventis Pharmaceuticals Inc., priority 2004, dated 2014)

What was measured:
[1] = tested on: Male Wistar rats; experiment: Chronic Mild Stress Model (CMS), sucrose consumption; type: in vivo, rat; details: 3 and 30 mg/kg orally, daily for five weeks; imipramine 10 mg/kg ip
Description: The following CMS study is performed using the parent compound 1 (hereafter “compound 1”) in comparison to known anti-depressant compound imipramine.
Male Wistar rats are brought into the laboratory two months before the start of the experiment at which time they weighed approximately 300 grams. Except as described below, the animals are singly housed, with food and water freely available, and maintained on a 12 hour light/dark cycle (lights on at 8 AM) at a temperature of about 22° C.
The animals are first trained to consume a 1% sucrose solution; training consists of eight 1 hour baseline tests in which sucrose is presented, in the home cage, following 14 hours food and water deprivation; intake is measured by weighing pre-weighed bottles containing the sucrose solution at the end of the test. Subsequently, sucrose consumption is monitored, under similar conditions, at weekly intervals throughout the whole experiment.
On the basis of their sucrose intakes in the final baseline test, the animals are divided into two matched groups. One group of animals is subjected to a chronic mild stress procedure for a period of 9 consecutive weeks. […]
Results are analyzed by multiple analysis of variance, followed by Fisher's LSD test for post hoc comparisons of means.

[2] = Relative bioavailability of parent compound 1 in plasma and brain after oral gavage in mice (Example 39); type: in vivo, Male CD1 mice; details: mouse brain samples 2, 4 and 7 hrs post-dose, LC/MS/MS
Description: Animals: Male CD1 mice (Charles River) weighing about 25 g—with free access to food and water.
Dose Groups: The compounds of this invention were administered to the test animals at a dose, which is molar equivalent to 10 mg/kg of the parent compound 1, ((R)-3-amino-2-hydroxy-propyl)-cyclohexylmethyl-phosphinic acid. Each of the test compounds was formulated at this dose level to yield a dose volume of 10 mL/kg and administered by oral gavage to a group of three mice per time point in each study group.
Formulations: The compounds of this invention were dissolved in vehicle of 0.2% Tween 80 and 0.5% methylcellulose (MC) at a concentration of about 1 mg/mL.
Samples: The blood samples (for plasma) were collected at the following time points: 5, 15 30 and 45 min […]; and 1, 2, 3, 4, 5, and 7 hrs post-dose. Brains were collected at 2, 4 and 7 hrs post-dose
Blood Handling: The blood samples were added to tubes containing 20 μL of a stock 10 mg/ml solution of sodium fluoride. The blood tubes were then stored in a refrigerator at approximately about 4° C. The volume of blood in each of these samples was about 0.4 mL. The samples were then centrifuged in a refrigerated centrifuge. […]
Bioanalysis: All plasma and brain samples were then analyzed for concentrations of the test compound as well as the parent compound 1, ((R)-3-amino-2-hydroxy-propyl)-cyclohexylmethyl-phosphinic acid by LC/MS/MS. […]

NC[C@@H](O)CP(=O)(O)CC1CCCCC1 [compound 1, ((R)-3-amino-2-hydroxy-propyl)-cyclohexylmethyl-phosphinic acid]
activity in CMS (sucrose intake) compared with imipramine [1]: equal to that of imipramine | concentration of the parent compound 1 in brain [2]: proportional to the concentration of the parent compound in plasma
